{
  "source": "patent US20260365637A1",
  "about": "“DUAL EZH2-HSP90 INHIBITORS” (TAIPEI MEDICAL UNIVERSITY, priority 2023, published 2026)",
  "key": {"Pt3R cells [1]": {"test_system": "Pt3R cells", "assay": "Itraq-based proteomics analysis of Pt3R cells", "format": "cell-based, human", "parameters": "M059/DMSO, P4HA2 (O15460) / M059/DMSO, ATP6V1E1 (P36543) / M059/DMSO, HSPH1 (Q92598) / M059/DMSO, ACTB (P60709) / M059/DMSO, HSPB1 (P04792) / M059/DMSO, S100A10 (P60903) / M059/DMSO, LRPAP1 (P30533) / M059/DMSO, GIPC1 (O14908) / M059/DMSO, HSPE1 (P61604) / M059/DMSO, OLA1 (Q9NTK5) / M059/DMSO, EEF1B2 (P24534) / M059/DMSO, PSMD3 (O43242) / M059/DMSO, ZYX (Q15942) / M059/DMSO, HK1 (P19367) / M059/DMSO, ARF3 (P61204) / M059/DMSO, TWF1 (Q12792) / M059/DMSO, HSPA8 (P11142) / M059/DMSO, CTNNB1 (P35222) / M059/DMSO, EHD1 (Q9H4M9) / M059/DMSO, HSPA4 (P34932) / M059/DMSO, PSMD14 (O00487): dose or concentration left out as unconfirmed", "procedure": "(§1) Pt3 GBM cells were isolated from a GBM patient as described in our previous study. Temozolomide (TMZ)-resistant phenotype of Pt3R cells had been validated previously. Pt3 cells were cultured in DMEM-supplemented with 10% fetal bovine serum, 100 μg/ml streptomycin and 100 μg/ml penicillin G. Pt3R cells were cultured in the presence of 100 μM of TMZ (MilliporeSigma Corporate, St. Louis, MO, USA).\n(§2) RNA was isolated using the RNA extracting kit (Zymo Research, Irvine, CA, USA), and subjected to RNA-seq serviced by BIOTOOLS Co., Ltd (New Taipei City, Taiwan). Cell pellets were collected and subjected to proteomic analysis serviced by BIOTOOLS Co., Ltd. The comparison in gene expression between Pt3 and Pt3R was performed using RNA seq, and has been described previously.\nHaving identified the desired chemical probe 7, we assessed global protein expression using Itraq-based proteomics analysis to estimate whether 7 suppresses HSP90 (Pt3R cell lines). […] This observation is aligned with the results attained with geldanamycin treatment (a well-known HSP90 inhibitor) (Cheung, C. H. A.; Chen, H.-H.; Cheng, L.-T.; Lyu, K. W.; Kanwar, J. R.; Chang, J.-Y. TargetingHsp90 with small molecule inhibitors induces the over-expression of the anti-apoptotic molecule, survivin, in human A549, HONE-1 and HT-29 cancer cells. Mol. Cancer 2010, 9 (1), 1-11; Kuroyanagi, G.; Tokuda, H.; Fujita, K.; Kawabata, T.; Sakai, G.; Kim, W.; Hioki, T.; Tachi, J; Matsushima-Nishiwaki, R.; Otsuka, T. Upregulation of TGF-β-induced HSP27 by HSP90 inhibitors in osteoblasts. BMC Musculoskelet. Disord. 2022, 23 (1), 495) and confirms the HSP90-suppressive activity of compound 7 in GBM cells."}, "Pt3R cells [2]": {"test_system": "Pt3R cells", "assay": "Cell cycle analysis (propidium iodide, flow cytometry)", "format": "cell-based, human", "conditions": "24 h, FIG. 5E"}, "Pt3R cells [3]": {"test_system": "Pt3R cells", "assay": "RNA-seq gene expression profiling in Pt3R cells", "format": "cell-based, human", "procedure": "as §1, §2\nTo gain insights regarding the ability of dual inhibitor 7 to suppress the viability of TMZ-resistant GBM cells, RNA-seq to analyze gene expression profiles was performed."}, "Pt3R cells [4]": {"test_system": "Pt3R cells", "assay": "Proliferation of Pt3R cells after treatment (FIG. 4A)", "format": "cell-based, human", "conditions": "2 μM, 48 h"}, "Pt3R tumors": {"test_system": "Pt3R tumors", "assay": "Growth of TMZ-resistant Pt3R tumors in mice", "format": "in vivo, NOD.CB17-Prkdc^scid/NCrCrl mice", "conditions": "5 mg/kg twice weekly", "procedure": "NOD.CB17-Prkdc^scid/NCrCrl mice (8-week-old) were purchased from BioLASCO Taiwan Co., Ltd. (Taipei, Taiwan). Pt3R cells (1×10^6) in […] DMEM were injected onto the backs of mice. After 10 days, tumor was touchable. Mice were injected with DMSO (the control group) or MPT1A059 (5 mg/kg) twice per week.\nIn-vivo anti-GBM efficacy of compound 7 was also evaluated in this study. For the in-vivo study, experimental NOD.CB17-Prkdc^scid/NCrCrl mice (8-week-old) were used and Pt3R cells (1×10^6) in […] DMEM were injected into the backs of mice. After 10 days, the tumor was detectable. Mice were injected with DMSO (the control group) or compound 7 (5 mg/kg) twice weekly. […] In a nutshell, the outcome of the in-vivo study ascertains that the remarkable in vitro anti-GBM activity profile of dual inhibitor 7 was translated to the in-vivo potential."}, "Pt3R cells [5]": {"test_system": "Pt3R cells", "assay": "Western blotting in Pt3R cells", "format": "cell-based, human", "excerpt": "The details of the procedure are described in our previous study. Primary antibodies, anti-CENPA, anti-CENPE, anti-CENPF and anti-CENPI antibodies, were purchased from abcam (Cambridge, UK); anti-CDK1 and anti-cyclin B1 antibodies were purchased from Santa Cruz Biotechnology, Inc. (Dallas, TX, USA); anti-EZH2 and anti-H3K27^me3 antibodies were purchased from GeneTex International Corporation (Hsinchu, Taiwan).\nFurthermore, the impact of compound 7 treatment on centromere proteins (CENPs) was assessed. As such, CENPs are the main constituent proteins of the kinetochore, which are essential for cell division. CENP expression is elevated in GBM tissues and correlated with unfavourable overall survival in glioma patients.\nTreatment concentration of MPT1A059 was indicated."}},
  "data": [
    {"smiles": "CCN(c1cc(-c2cccc(N(C)C(=O)c3cc(C(C)C)c(O)cc3O)c2)cc(C(=O)NCc2c(C)cc(C)[nH]c2=O)c1C)C1CCOCC1", "note": "[Compound 7, 3′-(2,4-dihydroxy-5-isopropyl-N-methylbenzamido)-N-((4,6-dimethyl-2-oxo-1,2-dihydropyridin-3-yl)methyl)-5-(ethyl(tetrahydro-2H-pyran-4-yl)amino)-4-methyl-[1,1′-biphenyl]-3-carboxamide]", "values": [
      {"measurement": "HSP family proteins (HSPA1A, HSPA8, HSP90AA1, HSPB1, HSPH1 and HSPA4)", "setting": "Pt3R cells [1]; Pt3R cells", "result": "significantly increased"},
      {"measurement": "M059/DMSO, PA2G4 (Q9UQ80)", "setting": "Pt3R cells [1]; decreased", "result": 0.628},
      {"measurement": "M059/DMSO, ACTB (P60709)", "setting": "Pt3R cells [1]; increased", "result": 1.657},
      {"measurement": "M059/DMSO, ARF3 (P61204)", "setting": "Pt3R cells [1]; increased", "result": 1.944},
      {"measurement": "M059/DMSO, ATP5IF1 (Q9UII2)", "setting": "Pt3R cells [1]; increased", "result": 1.646},
      {"measurement": "M059/DMSO, ATP6V1E1 (P36543)", "setting": "Pt3R cells [1]; increased", "result": 1.599},
      {"measurement": "M059/DMSO, CTNNB1 (P35222)", "setting": "Pt3R cells [1]; increased", "result": 1.550},
      {"measurement": "M059/DMSO, EEF1B2 (P24534)", "setting": "Pt3R cells [1]; increased", "result": 1.792},
      {"measurement": "M059/DMSO, EHD1 (Q9H4M9)", "setting": "Pt3R cells [1]; increased", "result": 1.555},
      {"measurement": "M059/DMSO, GIPC1 (O14908)", "setting": "Pt3R cells [1]; increased", "result": 1.699},
      {"measurement": "M059/DMSO, HK1 (P19367)", "setting": "Pt3R cells [1]; increased", "result": 1.921},
      {"measurement": "M059/DMSO, HSP90AA1 (P07900)", "setting": "Pt3R cells [1]; increased", "result": 1.958},
      {"measurement": "M059/DMSO, HSPA4 (P34932)", "setting": "Pt3R cells [1]; increased", "result": 1.561},
      {"measurement": "M059/DMSO, HSPA8 (P11142)", "setting": "Pt3R cells [1]; increased", "result": 2.096},
      {"measurement": "M059/DMSO, HSPB1 (P04792)", "setting": "Pt3R cells [1]; increased", "result": 1.661},
      {"measurement": "M059/DMSO, HSPE1 (P61604)", "setting": "Pt3R cells [1]; increased", "result": 1.710},
      {"measurement": "M059/DMSO, HSPH1 (Q92598)", "setting": "Pt3R cells [1]; increased", "result": 1.642},
      {"measurement": "M059/DMSO, LRPAP1 (P30533)", "setting": "Pt3R cells [1]; increased", "result": 1.667},
      {"measurement": "M059/DMSO, OLA1 (Q9NTK5)", "setting": "Pt3R cells [1]; increased", "result": 1.745},
      {"measurement": "M059/DMSO, P4HA2 (O15460)", "setting": "Pt3R cells [1]; increased", "result": 1.588},
      {"measurement": "M059/DMSO, PSMD3 (O43242)", "setting": "Pt3R cells [1]; increased", "result": 1.801},
      {"measurement": "M059/DMSO, PSMD14 (O00487)", "setting": "Pt3R cells [1]; increased", "result": 1.579},
      {"measurement": "M059/DMSO, S100A10 (P60903)", "setting": "Pt3R cells [1]; increased", "result": 1.664},
      {"measurement": "M059/DMSO, TWF1 (Q12792)", "setting": "Pt3R cells [1]; increased", "result": 1.995},
      {"measurement": "M059/DMSO, ZYX (Q15942)", "setting": "Pt3R cells [1]; increased", "result": 1.903},
      {"measurement": "cell cycle", "setting": "Pt3R cells [2]", "result": "induced cell cycle arrest at the M phase"},
      {"measurement": "DNA repair capacity", "setting": "Pt3R cells [3]", "result": "highly suppressed"},
      {"measurement": "CENPF, CENPE, CENPA and CENPI (gene expression)", "setting": "Pt3R cells [3]; FIG. 5C", "result": "decreased"},
      {"measurement": "RBBP8 and BRCA1 gene expression", "setting": "Pt3R cells [3]; FIG. 6A", "result": "suppressed"},
      {"measurement": "expression of genes involved in processing DNA double-strand break and in homologous recombination", "setting": "Pt3R cells [3]; FIG. 6A", "result": "decreased"},
      {"measurement": "expression of genes regulating homologous recombination (TOP2A, RAD54B, RAD21, EME1, BRIP1)", "setting": "Pt3R cells [3]; FIG. 6H", "result": "suppressed"},
      {"measurement": "cell division and DNA repair gene sets (GSEA)", "setting": "Pt3R cells [3]; GSEA", "result": "highly suppressed"},
      {"measurement": "M phase/kinetochore/spindle-related gene expression", "setting": "Pt3R cells [3]; RNA-seq", "result": "decreased"},
      {"measurement": "apoptosis/necrosis-related gene expression", "setting": "Pt3R cells [3]; RNA-seq", "result": "increased"},
      {"measurement": "number of gene expressions decreased", "setting": "Pt3R cells [3]; RNA-seq, 2 μM, 48 h", "result": 498},
      {"measurement": "number of gene expressions increased", "setting": "Pt3R cells [3]; RNA-seq, 2 μM, 48 h", "result": 297},
      {"measurement": "cell proliferation", "setting": "Pt3R cells [4]", "result": "significantly inhibited cell proliferation"},
      {"measurement": "tumor size and weight compared to DMSO-treated mice", "setting": "Pt3R tumors; FIG. 8A", "result": "significantly smaller sizes and weights"},
      {"measurement": "tumor growth", "setting": "Pt3R tumors; FIG. 8B", "result": "tumor growth suppression ability"},
      {"measurement": "CDK1 and cyclin B1 expression", "setting": "Pt3R cells [5]; FIG. 5D", "result": "downregulated"},
      {"measurement": "EZH2 expression and EZH2-modulated H3K27 trimethylation", "setting": "Pt3R cells [5]; FIG. 7B", "result": "inhibited"},
      {"measurement": "catalase, superoxide dismutase (SOD) 1, glutathione reductase and glutathione peroxidase (GPX) 1 proteins", "setting": "Pt3R cells [5]; FIG. 7B", "result": "decreased"},
      {"measurement": "CENPs protein expression", "setting": "Pt3R cells [5]; Pt3R cells, FIG. 5D", "result": "decreased"}
    ]}
  ]
}
